The values below are quoted from earlier work in patent publication US10500240B2, “Use of terminalia chebula extract for treatment of osteoarthritis” (Natreon, Inc., priority 2013, dated 2019).

The subject of one series is HepG2 cells. Particulars: with doxorubicin.
The target in the next series is maltase. To be noted: reversible and non-competitive inhibitor; read-out: K(i) value, maltase.

In general, IC50 refers to the point on the concentration scale where inhibition reaches its midpoint. In the case of `O=C(O)CC1C(=O)OC2C3COC(=O)c4cc(O)c(O)c(O)c4-c4c(cc(O)c(O)c4O)C(=O)OC2C(OC(=O)c2cc(O)c(O)c4c2C1C(O)C(=O)O4)C(OC(=O)c1cc(O)c(O)c(O)c1)O3` [Chebulagic acid, beta-1-O-galloyl-2,4-chebuloyl-3,6-(R)-hexahydroxydiphenoyl-D-glucose], the “enhanced the cytotoxicity of doxorubicin in HepG2 cells” value in the series on HepG2 cells is given as 20 fold. The values for the IC50 with COX-1 and in the series with 5-LOX were 15 ± 0.288 µM and 2.1 ± 0.057 µM, respectively. On maltase, the Ki was 6.6 µM.
